The structures appear in SMILES notation. The source made the active and inactive calls. The rule behind the calls is not given here.

Experiment [1] deals with Melanocortin receptor 3 (Mus musculus) (UniProt P33033). In words: Agonistic activity against mouse MC3R at […]. The class given is functional.
Experiment [2] deals with Melanocortin receptor 4 (Mus musculus) (UniProt P56450). In words: Agonistic activity against mouse MC4R at […]. The class given is functional.
In experiment [3] the target is Melanocortin receptor 5 (Mus musculus) (UniProt P41149). In words: Agonistic activity against mouse MC5R at […]. The format is functional.
Sequence of Melanocortin receptor 5 (Mus musculus) (P41149 whole entry): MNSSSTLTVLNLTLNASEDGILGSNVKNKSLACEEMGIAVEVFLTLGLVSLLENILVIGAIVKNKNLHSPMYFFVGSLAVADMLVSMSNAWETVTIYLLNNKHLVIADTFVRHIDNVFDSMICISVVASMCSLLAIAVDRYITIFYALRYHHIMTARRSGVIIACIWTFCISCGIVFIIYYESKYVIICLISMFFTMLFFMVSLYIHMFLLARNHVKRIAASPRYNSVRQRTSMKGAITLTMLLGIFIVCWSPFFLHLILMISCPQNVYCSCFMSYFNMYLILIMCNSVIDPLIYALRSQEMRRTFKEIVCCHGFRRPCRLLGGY
The species entered for experiment [4] is Mus musculus. In words: Selectivity index, ratio of EC50 for mouse MCR5R to EC50 for mouse MC1R.
For experiment [5], the species on record is Mus musculus. In words: Selectivity index, ratio of EC50 for mouse MCR4R to EC50 for mouse MC1R.
The target in experiment [6] is Melanocyte-stimulating hormone receptor (Mus musculus, UniProt Q01727). As to the kind of experiment: Agonistic activity against mouse MC1R. The format is functional.
Sequence of Melanocyte-stimulating hormone receptor (Q01727 whole entry): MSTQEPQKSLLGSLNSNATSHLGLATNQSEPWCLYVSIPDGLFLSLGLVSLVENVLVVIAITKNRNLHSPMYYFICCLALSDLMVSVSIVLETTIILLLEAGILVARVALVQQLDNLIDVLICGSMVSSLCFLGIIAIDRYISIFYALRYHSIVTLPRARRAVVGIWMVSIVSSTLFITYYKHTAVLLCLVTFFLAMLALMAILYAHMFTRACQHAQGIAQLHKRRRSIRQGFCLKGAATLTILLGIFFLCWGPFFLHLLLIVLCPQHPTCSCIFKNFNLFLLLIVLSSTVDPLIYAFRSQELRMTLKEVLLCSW
Experiment [7] deals with Melanocortin receptor 4 (Mus musculus, UniProt P56450). As to the kind of experiment: Agonistic activity against mouse MC4R. The format is functional.
Sequence of Melanocortin receptor 4 (P56450 whole entry): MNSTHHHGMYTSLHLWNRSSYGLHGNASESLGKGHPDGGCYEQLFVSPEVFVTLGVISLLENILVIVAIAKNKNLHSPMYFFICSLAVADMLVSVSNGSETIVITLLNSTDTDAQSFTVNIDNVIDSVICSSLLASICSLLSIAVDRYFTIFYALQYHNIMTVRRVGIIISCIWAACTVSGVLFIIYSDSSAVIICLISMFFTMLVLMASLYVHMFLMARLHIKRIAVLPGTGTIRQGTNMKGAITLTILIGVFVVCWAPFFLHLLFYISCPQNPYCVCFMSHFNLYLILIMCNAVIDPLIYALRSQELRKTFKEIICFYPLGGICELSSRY
Experiment [8] concerns the target Melanocortin receptor 5 (Mus musculus, UniProt P41149). In words: Agonistic activity against mouse MC5R. The class given is functional.

Sequence of Melanocortin receptor 4 (Mus musculus) (P56450 whole entry): as above
Sequence of Melanocortin receptor 3 (Mus musculus) (P33033 whole entry): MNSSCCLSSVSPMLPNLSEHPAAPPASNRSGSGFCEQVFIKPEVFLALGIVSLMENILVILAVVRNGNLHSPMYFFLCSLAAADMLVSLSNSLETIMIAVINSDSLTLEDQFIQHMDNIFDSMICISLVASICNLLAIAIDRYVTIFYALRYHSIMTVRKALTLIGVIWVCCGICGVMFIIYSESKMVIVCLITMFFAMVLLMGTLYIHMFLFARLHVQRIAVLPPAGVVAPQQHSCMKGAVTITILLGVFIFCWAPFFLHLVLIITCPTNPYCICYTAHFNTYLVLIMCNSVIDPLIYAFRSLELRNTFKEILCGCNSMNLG
Sequence of Melanocortin receptor 5 (P41149 whole entry): as the sequence (P41149 whole entry) above

With `N=C(N)NCCCC(NC(=O)[C@@H](Cc1ccccc1)NC(=O)[C@H](Cc1cnc[nH]1)NC(=O)c1ccc2c(c1)OCO2)C(N)=O` (single isomer, unassigned), in experiment [1], the outcome was inactive.
For `N=C(N)NCCC[C@@H](NC(=O)[C@@H](Cc1ccccc1)NC(=O)[C@H](Cc1cnc[nH]1)NC(=O)/C=C/c1ccc2c(c1)OCO2)C(N)=O`, the result in experiment [1] was inactive.
Consider `N=C(N)NCCCC(NC(=O)[C@@H](Cc1ccccc1)NC(=O)[C@H](Cc1cnc[nH]1)NC(=O)CCCCc1ccc2c(c1)OCO2)C(N)=O` (single isomer, unassigned), for which the outcome in experiment [2] and in experiment [3] was inactive.
`N=C(N)NCCCC(NC(=O)[C@@H](Cc1ccccc1)NC(=O)[C@H](Cc1cnc[nH]1)NC(=O)/C=C/c1ccccc1)C(N)=O` (single isomer, unassigned): the result in experiment [1] was inactive. Further, the Selectivity Index in experiment [4] was determined as 25; in experiment [5], 44.
On to `N=C(N)NCCCC(NC(=O)[C@@H](Cc1ccccc1)NC(=O)[C@H](Cc1cnc[nH]1)NC(=O)CCc1c[nH]cn1)C(N)=O` (single isomer, unassigned), for which, in experiment [1], the outcome was inactive.
Turning to `N=C(N)NCCCC(NC(=O)[C@@H](Cc1ccccc1)NC(=O)[C@H](Cc1cnc[nH]1)NC(=O)/C=C/c1ccc([N+](=O)[O-])cc1)C(N)=O` (single isomer, unassigned), the outcome in experiment [2] and in experiment [1] was inactive.
Consider `N=C(N)NCCCC(NC(=O)[C@@H](Cc1ccccc1)NC(=O)[C@H](Cc1cnc[nH]1)NC(=O)c1ccc2cc(O)ccc2c1)C(N)=O` (single isomer, unassigned), for which the outcome in experiment [2] and in experiment [1] was inactive.
For the compound `N=C(N)NCCCC(NC(=O)[C@@H](Cc1ccccc1)NC(=O)[C@H](Cc1cnc[nH]1)NC(=O)CCC(=O)c1ccccc1)C(N)=O` (single isomer, unassigned), the outcome in experiment [1] was inactive.
In the case of `CC(=O)N/C(=C\c1ccccc1)C(=O)N[C@@H](Cc1cnc[nH]1)C(=O)N[C@H](Cc1ccccc1)C(=O)NC(CCCNC(=N)N)C(N)=O` (single isomer, unassigned), the outcome in experiment [1] and in experiment [3] was inactive.
In the case of `COc1ccc(/C=C/C(=O)N[C@@H](Cc2cnc[nH]2)C(=O)N[C@H](Cc2ccccc2)C(=O)NC(CCCNC(=N)N)C(N)=O)cc1` (single isomer, unassigned), the outcome in experiment [1] was inactive.
`N=C(N)NCCCC(NC(=O)[C@@H](Cc1ccccc1)NC(=O)[C@H](Cc1cnc[nH]1)NC(=O)CCc1cccnc1)C(N)=O` (single isomer, unassigned): the result in experiment [2] and in experiment [1] was inactive.
On to `COc1ccc(/C=C\C(=O)N[C@@H](Cc2cnc[nH]2)C(=O)N[C@H](Cc2ccccc2)C(=O)N[C@H](CCCNC(=N)N)C(N)=O)cc1`, for which the result in experiment [1] was inactive.
Same read-out and setting: for `N=C(N)NCCCC(NC(=O)[C@@H](Cc1ccccc1)NC(=O)[C@H](Cc1cnc[nH]1)NC(=O)CCC(=O)c1ccc(F)cc1)C(N)=O` (single isomer, unassigned) the value was “inactive”.
`N=C(N)NCCCC(NC(=O)[C@@H](Cc1ccccc1)NC(=O)[C@H](Cc1cnc[nH]1)NC(=O)CCc1cccc2c1OCO2)C(N)=O` (single isomer, unassigned): the EC50 in experiment [6] was 7.28 µM; in experiment [7], 25.5 µM; in experiment [8] it was 23 µM. The outcome in experiment [1] was inactive.
For the compound `N#C/C(=C\c1ccc(O)cc1)C(=O)N[C@@H](Cc1cnc[nH]1)C(=O)N[C@H](Cc1ccccc1)C(=O)NC(CCCNC(=N)N)C(N)=O` (single isomer, unassigned), in experiment [1], the outcome was inactive.
Still for that read-out and setting: for `COc1ccccc1/C=C/C(=O)N[C@@H](Cc1cnc[nH]1)C(=O)N[C@H](Cc1ccccc1)C(=O)NC(CCCNC(=N)N)C(N)=O` (single isomer, unassigned) the value was “inactive”; for `N=C(N)NCCCC(NC(=O)[C@@H](Cc1ccccc1)NC(=O)[C@H](Cc1cnc[nH]1)NC(=O)/C(F)=C/c1ccccc1)C(N)=O` (single isomer, unassigned), “inactive”.
Take `N=C(N)NCCCC(NC(=O)[C@@H](Cc1ccccc1)NC(=O)[C@H](Cc1cnc[nH]1)NC(=O)CCc1ccc(O)cc1)C(N)=O` (single isomer, unassigned): the outcome in experiment [2] and in experiment [1] was inactive.
As to `N=C(N)NCCCC(NC(=O)[C@@H](Cc1ccccc1)NC(=O)[C@H](Cc1cnc[nH]1)NC(=O)/C=C/c1cccc(O)c1)C(N)=O` (single isomer, unassigned), the result in experiment [1] was inactive.
`N=C(N)NCCCC(NC(=O)[C@@H](Cc1ccccc1)NC(=O)[C@H](Cc1cnc[nH]1)NC(=O)CCc1cccc(O)c1)C(N)=O` (single isomer, unassigned): the outcome in experiment [2] and in experiment [1] was inactive.
For the compound `N=C(N)NCCC[C@@H](NC(=O)[C@@H](Cc1ccccc1)NC(=O)[C@H](Cc1cnc[nH]1)NC(=O)/C=C/c1ccc(F)cc1F)C(N)=O`, the outcome in experiment [1] was inactive.

As a reminder, the EC50 is the concentration at which the effect is half-maximal.

The record behind these values is ChEMBL document CHEMBL1155320, “Semi-rigid tripeptide agonists of melanocortin receptors” (Bioorg Med Chem Lett, 2009).
